Series [1] concerns A2780 ovarian carcinoma cells. The series is described as follows: Antiproliferative activity on A2780 cells, MTT (C.2). Type of series: cell-based. Particulars: Homo sapiens, 96 h, four days of incubation, read-out: Cellular activity pIC50 C.2 (converted). On the procedure:
All compounds tested were dissolved in DMSO and further dilutions were made in culture medium. Final DMSO concentrations never exceeded 0.1% (v/v) in cell proliferation assays. Controls contained A2780 cells and DMSO without compound and blanks contained DMSO but no cells. MTT was dissolved at 5 mg/ml in PBS. A glycine buffer comprised of 0.1 M glycine and 0.1 M NaCl buffered to pH 10.5 with NaOH (1N) was prepared (all reagents were from Merck).
The human A2780 ovarian carcinoma cells (a kind gift from Dr. T. C. Hamilton [Fox Chase Cancer Centre, Pennsylvania, USA]) were cultured in RPMI 1640 medium supplemented with 2 mM L-glutamine, 50 μg/ml gentamicin and 10% fetal calf serum. Cells were routinely kept as monolayer cultures at 37° C. in a humidified 5% CO2 atmosphere. Cells were passaged once a week using a trypsin/EDTA solution at a split ratio of 1:40. All media and supplements were obtained from Life Technologies. Cells were free of mycoplasma contamination as determined using the Gen-Probe Mycoplasma Tissue Culture kit (supplier: BioMerieux).
Cells were seeded in NUNC™ 96-well culture plates (Supplier: Life Technologies) and allowed to adhere to the plastic overnight. Densities used for plating were 1500 cells per well in a total volume of 200 μl medium. After cell adhesion to the plates, medium was changed and drugs and/or solvents were added to a final volume of 200 μl. Following four days of incubation, medium was replaced by 200 μl fresh medium and cell density and viability was assessed using an MTT-based assay. To each well, 25 μl MTT solution was added and the cells were further incubated for 2 hours at 37° C. The medium was then carefully aspirated and the blue MTT-formazan product was solubilized by addition of 25 μl glycine buffer followed by 100 μl of DMSO. […] Within an experiment, the results for each experimental condition are the mean of 3 replicate wells. For initial screening purposes, compounds were tested at a single fixed concentration of 10^−6 M. For active compounds, the experiments were repeated to establish full concentration-response curves. For each experiment, controls (containing no drug) and a blank incubation (containing no cells or drugs) were run in parallel. The blank value was subtracted from all control and sample values. For each sample, the mean value for cell growth (in absorbance units) was expressed as a percentage of the mean value for cell growth of the control. […] Herein the effects of test compounds are expressed as pIC50 (the negative log value of the IC50-value)(see Table F-3).

Series [2] addresses histone deacetylase (HeLa nuclear extracts). The series is described as follows: In vitro assay for inhibition of histone deacetylase with [3H]-labelled substrate (C.1.a). Type of series: biochemical. As to conditions: [3H]-acetylated histone H4 peptide substrate. How it is done: As a substrate for measuring HDAC activity a synthetic peptide, i.e. the amino acids 14-21 of histone H4, was used. The substrate is biotinylated at the NH2-terminal part with a 6-aminohexanoic acid spacer, and is protected at the COOH-terminal part by an amide group and specifically [^3H]acetylated at lysine 16. The substrate, biotin-(6-aminohexanoic)Gly-Ala-([^3H]-acetyl-Lys-Arg-His-Arg-Lys-Val-NH2), was added in a buffer containing 25 mM Hepes, 1 M sucrose, 0.1 mg/ml BSA and 0.01% Triton X-100 at pH 7.4. After 30 min the deacetylation reaction was terminated by the addition of HCl and acetic acid. (final concentration 0.035 mM and 3.8 mM respectively). After stopping the reaction, the free ^3H-acetate was extracted with ethylacetate. After mixing and centrifugation, the radioactivity in an aliquot of the upper (organic) phase was counted in a β-counter.
For each experiment, controls (containing HeLa nuclear extract and DMSO without compound), a blank incubation (containing DMSO but no HeLa nuclear extract or compound) and samples (containing compound dissolved in DMSO and HeLa nuclear extract) were run in parallel. In first instance, compounds were tested at a concentration of 10^−5M. […] In each test the blank value was subtracted from both the control and the sample values. The control sample represented 100% of substrate deactylation. For each sample the radioactivity was expressed as a percentage of the mean value of the controls. […] Herein the effects of test compounds are expressed as pIC50 (the negative log value of the IC50-value) (see Table F-3).

The nature of series [3]: Solubility/stability at different pH's, chemiluminescent nitrogen detector (C.3.b). Type of series: physicochemical. Particulars: aqueous buffer; pH = 2.3. From the text:
In a second method the solubility of a compound at different pH's can be measured with the use of a Chemiluminescent Nitrogen Detector (see example C.3.b).
The solubility of a compound, at different pH's, can also be measured with the use of a chemiluminescent nitrogen detector. (see Table F-3).

The target in series [4] is histone deacetylase (HeLa nuclear extracts). The series is described as follows: In vitro assay for inhibition of histone deacetylase with fluorescent-labelled substrate (C.1.b). As to conditions: Fluor de Lys substrate. Type of series: biochemical. How it is done: The HDAC Fluorescent Activity Assay/Drug Discovery Kit of Biomol (cat.No: AK-500-0001) was used. The HDAC Fluorescent Activity Assay is based on the Fluor de Lys (Fluorogenic Histone deAcetylase Lysyl) substrate and developer combination. The Fluor de Lys substrate, comprises an acetylated lysine side chain. Deacetylation of the substrate sensitizes the substrate so that, in the second step, treatment with the Fluor de Lys developer produces a fluorophore.
After 30 min, 1 volume of the developer was added. […] For each experiment, controls (containing HeLa nuclear extract and buffer), a blank incubation (containing buffer but no HeLa nuclear extract) and samples (containing compound dissolved in DMSO and further diluted in buffer and HeLa nuclear extract) were run in parallel. In first instance, compounds were tested at a concentration of 10^−5M. […] All sample were tested 4 times. In each test the blank value was subtracted from both the control and the sample values. The control sample represented 100% of substrate deactylation. For each sample the fluorescence was expressed as a percentage of the mean value of the controls. […] Herein the effects of test compounds are expressed as pIC50 (the negative log value of the IC50-value) (see Table F-3).

Experiment in series [5]: not given
The source holds these as a separate data set.

Series [6] can be described thus: Metabolic stability with rat hepatocytes cell culture (C.5.b). In kind it is in vitro ADME. As to conditions: 5 μM. On the procedure:
Rat hepatocytes were isolated from male Sprague Dowley rats. The compounds were dissolved to a 5 mM stock solution in 100% DMSO and incubated at a final concentration of 5 μM for 0, 15, 30, 60 and 120 min with rat hepatocyte cell cultures (0.5 million viable cells/0.5 ml) using 24-well plates.
Samples were prepared for LC-MS by addition of two volumes of DMSO. The samples were thoroughly shaken and subsequently centrifuged at 900 g for 10 min (room temperature). All experiments were performed in triplicate. Of the resulting supernatant 50 μl was analysed by LC-MS.
For LC-MS, elution of samples was performed on a Hypersil BDS C18 column (50×4.6 mm, 5 μm, Thermohypersil, UK). The HPLC system comprised a Surveyor delivery system (Surveyor Inc., San Jose, US) equipped with a Surveyor autosampler device. Elution was with buffer A (10 mM ammoniumacetate (pH 6.9) in H2O/Acetonitrile (95:5)) and solvent B (acetonitrile) at a flow rate of 1.2 ml/min. The gradient employed was 0.5 min solvent A as start condition followed by increasing the organic phase concentration from 0% B till 95% B over 2 min in a linear fashion. This phase was kept stationary for a further 2 min and reduced again to 0% B within 0.5 min.
Total injection volume of samples was 50 μL. Column oven temperature was kept at 40° C. The LC flow was splitted for MS detection and 0.1 ml let into the source. An triple quadrupol mass spectrometer TSQ Quantum (Thermofinnigan, LaJolla, USA) mass spectrometer fitted with an ESI source was used for detection. Source voltage was set at 3800 volt, the capillary temperature at 300° C. The mass spectrometer was operated in positive ion mode in SIM adjusted to the mass of M+H with a scan width of 1 Da for quantification purposes. Instrument control, data acquisition and processing were performed using the Xcalibur software (ThermoFinnigan, San Jose, Calif., U.S.A). The metabolic stability of compounds in rat hepatocytes was expressed as in vitro half-lives.

Series [7] relates to p21 promoter reporter A2780 tumour in nude mice. The series is described as follows: p21 promoter induction, in vivo method, tumour fluorescence (C.6.c). Particulars: 20-40 mpk orally or intravenously daily during 6 days, ranked inactive, weaker, identical or better than R306465. How it is done: Another method tests the capacity of compounds to induce p21 as the consequence of HDAC inhibition at the cellular level. […] The reporter gene is a fluorescent protein and the expression of the reporter gene is measured as the amount of fluorescent light emitted (see example C.6.b.). The last method is an in vivo method wherein mice are used for screening the pharmaceutical activity of a compound. The above described stably transformed tumour cells can be administered to mice in an amount sufficient to effect production of a tumour. After the tumour cells had sufficient time to form a tumour, a potentially active compound can be administered to the animals and the effect of said compound on the tumour cells is evaluated by measuring the expression of the reporter gene. Incubation with pharmaceutical active compounds will result in an increase of reporter gene expression compared to the control levels (see example C.6.c.)
A selected clone was injected subcutaneous (10^7 cells/200 μl) into the flank of nude mice and a calliper measurable tumour was obtained after 12 days. […] Tumours were evaluated for fluorescence by the in-house developed Automated Whole Body Imaging System (Fluorescent stereomicroscope type Olympus® SZX12 equipped with a GFP filter and coupled to a CCD camera type JAI® CV-M90 controlled by a software package based on the IMAQ Vision Software from National Instruments®). […]

Each structure is given as a SMILES string. In brackets after ≈: the same amount, converted by molar mass. Like-named read-outs stand apart in the source and are kept apart here.

As to `Cn1cc(CNC2CCN(c3ncc(C(=O)NO)cn3)CC2)c2ccccc21` [Compound 6], the IC50 in series [1] is 501 nM. Also, the “Enzymatic activity pIC50 C.1.a.” value in series [2] is reported as 8.2.
On to `CN(CCc1cn(C)c2ccccc12)CC1CCN(c2ncc(C(=O)NO)cn2)CC1` [Compound 21], for which the melting point was 83 °C. Further, in series [1], the IC50 is 25.1 nM. In addition, the concentration in solution in series [3] (solubility) was 1900 µg/mL (≈ 4.5 mM). Besides, the “Enzymatic activity pIC50 C.1.b” value in series [4] stood at 8.5.
Consider `COc1cc(N)c(Cl)cc1C(=O)NC1CCN(CCCOc2ccc(F)cc2)CC1OC` (stereo not drawn) [Cisapride], for which, in series [5] (human, 15 min, 5 μM), the “% metabolism” value came to 45%.
For `CCCO` [propanol], in series [5] (15 min incubation with microsomes, compound 5 μM), the “% metabolism” value is 25%.
As for `O=C(NO)c1cnc(N2CCC(CNCCc3c[nH]c4ccccc34)CC2)nc1` [Compound 5], in series [1], the IC50 was 316 nM. Besides, the concentration in solution in series [3] (solubility) was 2000 µg/mL (≈ 5.07 mM). In addition, in series [2], the “Enzymatic activity pIC50 C.1.a.” value amounted to 8.6. The in vitro half-live in series [6] was found to be 60 min.
As for `CN(CCc1c[nH]c2ccccc12)CC1CCN(c2ncc(C(=O)NO)cn2)CC1` [Compound 3], the melting point turned out to be 121 °C. In addition, the IC50 in series [1] is 200 nM. Moreover, in series [2], the “Enzymatic activity pIC50 C.1.a.” value is listed as 8.5.
Regarding `CCN(Cc1cn(CC)c2ccccc12)CC1CCN(c2ncc(C(=O)NO)cn2)CC1` [Compound 20], the melting point is 90 °C. In addition, the IC50 in series [1] was 7.94 nM. In series [3], this compound yielded a solubility of 2700 µg/mL (≈ 6.18 mM). In series [4], the “Enzymatic activity pIC50 C.1.b” value was determined as 9.5.
In series [6], `O=C(NO)c1cnc(N2CCN(S(=O)(=O)c3ccc4ccccc4c3)CC2)nc1` [Compound R306465, reference compound] registered an in vitro half-live of 8 min.
On to `O=C(NO)c1cnc(N2CCC(NCc3c[nH]c4ccccc34)CC2)nc1` [Compound 7], for which the IC50 in series [1] is 794 nM. In series [2], the “Enzymatic activity pIC50 C.1.a.” value is given as 8.5.
For `Cn1cc(CNCC2CCN(c3ncc(C(=O)NO)cn3)CC2)c2ccccc21` [Compound 1], the “tumour fluorescence ranking versus R306465” value in series [7] is listed as “better than R306465”. For the same compound, the in vitro half-live in series [6] stood at 81 min.

(Values after patent US9150543B2, “Substituted indolyl alkyl amino derivatives as inhibitors of histone deacetylase” (Janssen Pharmaceutica N. V., priority 2004, dated 2015).)
